Measurements taken from patent EP0639376A1, “Liquid composition containing amide derivative” (TERUMO KABUSHIKI KAISHA, priority 1993, dated 1995).
One block for each molecule: values may come before it.

What was measured:
Assay type in all cases: physicochemical
[1] = Test for stability: percentage of compound remaining after storage at 60°C, measured by liquid chromatography; details: for remaining at 480 h: buffer with hco-60, Table 5, 0.05 g compound, 1.0 g HCO-60, pH buffer, 60°C, 20 days, read-out: Stability (as percentage of compound remained after stored at 60°C for 20 days)
Protocol: The difference in the stability of Compound (III) was tested, depending on the solubilizer added thereto. The stability was represented by the percentage (%) of the amount of Compound (III) remained after storage. Precisely, each sample formulation shown in Table 2 below was put in a glass tube with a screw cap and stored for 10 days and 20 days both at 60°C, whereupon the percentage of the amount of the compound remained after the storage was measured by liquid chromatography. From the value thus measured, the stability of the compound was evaluated.
Next, to examine the influence of the concentration of the solubilizer on the stability of Compound (III), experiments were carried out where the concentration of the nonionic surfactant to be added was stepwise increased while the concentration of Compound (III) was kept constant. Precisely, each sample formulation shown in Table 3 below was stored for 10 days and 20 days both at 60°C, whereupon the percentage (%) of the amount of Compound (III) remained after the storage was measured by liquid chromatography. On the basis of the thus-measured percentage, the stability of the compound was evaluated.

[2] = Mean particle size of formed micelles by light-scattering photometry; parameters: key: - : No micelle detected; details: Compound (III) 0.005 W/V %
From the text: It was confirmed that, when the concentration of Compound (III) was 0.005 W/V % and when the concentration of HCO-60 was 0.10 W/V % or more, micelles having a mean particle size of from 16 to 20 nm were formed.

[3] = Solubility of the compound in solvents (description of the substance)
[4] = Test for solubility: dissolution of the compound observed with the naked eye; details: Table 5; 0.05 g compound, 1.0 g HCO-60, pH buffer
Protocol: To test the solubility of the above-mentioned compound, various experiments were carried out under different conditions in the presence or absence of a nonionic surfactant.
Formulation No. 1 was prepared by heating and dissolving 0.05 g of Compound (III) and 0.5 g of polyoxyethylene-hardened castor oil (HCO-60) in a beaker at about 60°C followed by gradually adding thereto lactic acid/sodium lactate buffer (pH 5.0) as the pH buffer while stirring to dissolve them.

- stabilization of Compound (III) ([1]; result in words, from Table 3, HCO-60 0.10 W/V % or more): almost satisfactorily stabilized
- Mean Particle Size ([2]; HCO-60 0.05 W/V %): -
- Mean Particle Size ([2]; HCO-60 0.10 W/V %): 16.2 +/- 3.7 nm
- Mean Particle Size ([2]; HCO-60 0.25 W/V %): 19.6 +/- 4.3 nm
- Mean Particle Size ([2]; HCO-60 0.50 W/V %): 18.3 +/- 4.5 nm
- Mean Particle Size ([2]; HCO-60 1.00 W/V %): 18.8 +/- 4.2 nm
- solubility in acetone [3]: easily soluble
- solubility in acetonitrile [3]: soluble in acetonitrile to some degree
- solubility in dichloroethane [3]: easily soluble
- solubility in ethanol [3]: hardly soluble
- solubility in water [3]: almost insoluble
Compound: CCOC(=O)Oc1ccc(/C=C/C=C/C(=O)NCCN2CCC(OC(c3ccccc3)c3ccccc3)CC2)cc1OC [Compound (III), 1-[{5'-(3''-methoxy-4''-ethoxycarbonyloxyphenyl)-2',4'-pentadienoyl}aminoethyl]-4-diphenylmethoxypiperidine]

- Solubility [4]: Dissolved clear.
- remaining at 480 h [1]: 91.2%
Compound: CCOC(=O)Oc1ccc(/C=C/C(=O)NCCN2CCC(OC(c3ccccc3)c3ccccc3)CC2)cc1OC [Compound (IV)]

- Solubility [4]: Dissolved clear.
- remaining at 480 h [1]: 92.6%
Compound: CCOC(=O)Oc1ccc(/C=C/C=C/C(=O)NCCN2CCC(OC(c3ccccc3)c3ccccc3)CC2)cc1OC(=O)OCC [(VII)]

- Solubility [4]: Dissolved clear.
- remaining at 480 h [1]: 92.1%
Compound: CCOC(=O)Oc1ccc(/C=C/C=C/C(=O)NCCCN2CCN(C(c3ccccc3)c3ccccc3)CC2)cc1OC [Compound (V)]

- Solubility [4]: Dissolved clear.
- remaining at 480 h [1]: 90.9%
Compound: CCOC(=O)Oc1ccc(/C=C/C(=O)NCCN2CCC(OC(c3ccccc3)c3ccccc3)CC2)cc1OC(=O)OCC [(VI)]
